Data taken from PubChem BioAssay (NCI).
Values joined by “and” are separate entries in the source; they are usually repeats but may differ in a detail not shown here. Equal entries are not always repeated.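 Five concentrations, 48 hours, 96-well plates. At the GI50, growth is halved. At the TGI there is no net growth.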

Columns and labels:
Assay in all cases: NCI anticancer screen, dose series, 48 h
NCI-H226 lung = tested on: NCI-H226 lung
K-562 leukemia = tested on: K-562 leukemia
UO-31 renal = tested on: UO-31 renal
SNB-19 CNS = tested on: SNB-19 CNS
MALME-3M melanoma = tested on: MALME-3M melanoma
HOP-62 NSCLC = tested on: HOP-62 NSCLC
COLO 205 colon = tested on: COLO 205 colon
M14 melanoma = tested on: M14 melanoma
HOP-92 NSCLC = tested on: HOP-92 NSCLC
MDA-MB-435 = tested on: MDA-MB-435

| SMILES | TGI (NCI-H226 lung) | TGI (K-562 leukemia) [µM] | TGI (UO-31 renal) | TGI (SNB-19 CNS) [µM] | TGI (MALME-3M melanoma) [µM] | TGI (HOP-62 NSCLC) [µM] | TGI (COLO 205 colon) | TGI (M14 melanoma) | TGI (HOP-92 NSCLC) | TGI (MDA-MB-435) [µM] | GI50 (NCI-H226 lung) [µM] | GI50 (UO-31 renal) [µM] | GI50 (SNB-19 CNS) [µM] | GI50 (MALME-3M melanoma) [µM] | GI50 (HOP-62 NSCLC) [µM] | GI50 (COLO 205 colon) [µM] | GI50 (M14 melanoma) [µM] | GI50 (HOP-92 NSCLC) [µM] | GI50 (MDA-MB-435) [µM] | GI50 (K-562 leukemia) [µM] |
| --- | --- | --- | --- | --- | --- | --- | --- | --- | --- | --- | --- | --- | --- | --- | --- | --- | --- | --- | --- | --- |
| OC1CC(O)O[C@H](c2ccccc2)C1 (stereo partly drawn) | > 100 µM | > 100 | > 100 µM | > 100 | > 100 | > 100 | > 100 µM | > 100 µM | > 100 µM |  |  |  |  |  |  |  |  |  |  |  |
| O=C1CCc2cc(Br)ccc2O1 | > 100 µM | > 100 |  | > 100 | > 100 | > 100 | > 100 µM | > 100 µM | > 100 µM | > 100 |  |  |  |  |  |  |  |  |  |  |
| COC(=O)c1cc(O)ccc1O | > 100 µM | > 100 | > 100 µM | > 100 | > 100 | > 100 | > 100 µM | > 100 µM | > 100 µM |  |  |  |  |  |  |  |  |  |  |  |
| COc1cccc(C(=O)NNc2nc(Cl)nc(N3CCN(C(c4ccccc4)c4ccccc4)CC3)n2)c1 | 38 µM |  | 22 µM | 3.98 | 3.78 | 23.5 | 14.3 µM | 3.53 µM | 3.82 µM | 14.2 | 17 | 3.14 | 1.88 | 1.7 | 8.71 | 3.67 | 1.7 | 1.57 | 3.96 |  |
| CCCCCCCCCCCCC(O)C1CCC(C(O)CCCCC(O)CCCCCC2CC(CC(C)=O)C(=O)O2)O1 (stereo not drawn) | 4.19 µM and 12.7 µM | 7.7 | 3.81 µM and 14 µM | 15.3 | 16.5 | 19.1 | 2.65 µM and 11.7 µM | 3.33 µM and 22.2 µM | 9.29 µM and 12.5 µM |  | 0.0401 | 1.06 |  |  | 2.74 | 1.37 | 1.66 | 3.38 |  | 1.35 |
| CC[C@]12C=CCN3CC[C@@]4(c5ccc(OC)cc5N(C)[C@H]4[C@@](O)(C(=O)OC)[C@@H]1OC(=O)CCC(=O)O[C@H]1CC[C@H]4[C@@H]5CCC6=CC(=O)CC[C@@H]6[C@H]5CC[C@]14C)[C@@H]32 | > 50 µM | > 50 |  | > 50 | 21.1 | > 50 | 1.94 µM | > 50 µM | 4.08 µM | > 50 | 2.07 |  | 2.31 | 1.64 | 2.4 | 0.941 | 1.92 | 1.07 | 1.93 | 1.82 |
| OC1(C(Sc2ccccc2)Sc2ccccc2)CCCCCC1 |  |  | 16.6 µM | 77.4 |  | 59.5 | 57.8 µM | 49.2 µM | 56.5 µM |  |  |  |  |  |  |  |  |  |  |  |
| CCOc1cc(Cl)c(C(C)NC(=O)c2cccc(OC)c2)cc1OCC (stereo not drawn) | > 100 µM | > 100 | > 100 µM | > 100 | > 100 | > 100 | 47.3 µM | > 100 µM | > 85.6 µM |  | 37.4 | 13.9 | 12.6 | 9.42 | 6.94 | 7.17 | 5.39 | 12.1 |  | 3.9 |
